In PubChem BioAssay (NCI):
Values joined by “and” are separate entries in the source; they are usually repeats but may differ in a detail not shown here. Identical values can stand only once.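 Grown in 96-well plates, cells were treated for 48 hours with each compound at five concentrations. Insufficient inhibition: endpoint recorded as highest concentration tested. Here, GI50 denotes the concentration required for 50% inhibition of growth. TGI: concentration producing complete growth inhibition.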

What was measured:
Assay in all cases: DTP human tumour cell line panel, 48 h
A549 NSCLC = test system: A549 NSCLC
HCC-2998 colon = test system: HCC-2998 colon
KM12 colon = test system: KM12 colon
NCI-H460 lung = test system: NCI-H460 lung
OVCAR-4 ovarian = test system: OVCAR-4 ovarian
SF-295 CNS = test system: SF-295 CNS
NCI-H226 lung = test system: NCI-H226 lung
MDA-MB-231 breast = test system: MDA-MB-231 breast
MDA-MB-435 = test system: MDA-MB-435
NCI/ADR-RES ovarian = test system: NCI/ADR-RES ovarian

| Compound | GI50 (A549 NSCLC) | TGI (A549 NSCLC) | TGI (HCC-2998 colon) | TGI (KM12 colon) | TGI (NCI-H460 lung) | GI50 (OVCAR-4 ovarian) | TGI (OVCAR-4 ovarian) | TGI (SF-295 CNS) | TGI (NCI-H226 lung) | GI50 (KM12 colon) | GI50 (MDA-MB-231 breast) | TGI (MDA-MB-231 breast) | GI50 (MDA-MB-435) | TGI (MDA-MB-435) | GI50 (NCI-H226 lung) | GI50 (NCI-H460 lung) | GI50 (SF-295 CNS) | GI50 (HCC-2998 colon) | GI50 (NCI/ADR-RES ovarian) | TGI (NCI/ADR-RES ovarian) |
| --- | --- | --- | --- | --- | --- | --- | --- | --- | --- | --- | --- | --- | --- | --- | --- | --- | --- | --- | --- | --- |
| COc1cc(C(=O)N[C@H]2CCc3cc(OC)c(OC)c(OC)c3-c3ccc(SC)c(=O)cc32)cc(OC)c1OC | 0.017 µM | 25 µM and > 100 µM | 0.159 µM | 16.4 µM | 0.0137 µM and 0.0808 µM | 0.0285 µM | 25 µM and > 100 µM | 0.0684 µM and 0.0328 µM |  |  |  |  |  |  |  |  |  |  |  |  |
| CC1(C)COC2C(N(Cc3ccccc3)Cc3ccccc3)C(=O)N21 (stereo not given) |  | > 100 µM | > 100 µM | > 100 µM | > 100 µM |  | > 100 µM | 88.8 µM | > 100 µM |  |  |  |  |  |  |  |  |  |  |  |
| O=C(NN1C(=O)CSC1c1cccc(Cl)c1)C(O)c1ccccc1 (stereo not given) | 35.9 µM | > 100 µM |  | > 100 µM | > 100 µM | 66.7 µM | > 100 µM | > 100 µM | > 100 µM | 90.4 µM | 87.7 µM | > 100 µM | > 100 µM | > 100 µM | 81 µM | 42.8 µM | 22.4 µM |  |  |  |
| CC(=O)c1ccc2c(c1)N(CCCN1CCN(CCO)CC1)c1ccccc1S2 | 3.3 µM | 11.5 µM | 3.2 µM | 4.04 µM | 4.09 µM | 3.98 µM | 14.7 µM | 4.26 µM | 27.9 µM | 1.97 µM | 1.96 µM | 4.51 µM | 1.72 µM | 3.52 µM | 7.14 µM | 2.05 µM | 2.15 µM | 1.71 µM | 3.05 µM | 12.9 µM |
| CC(=O)/C=C/c1ccc(Nc2c3ccccc3nc3occ(Cl)c23)cc1 | 4.04 µM | 32.5 µM | 14.6 µM | > 100 µM | 14.6 µM | 4.35 µM | 30.2 µM |  | 21.7 µM | > 100 µM | 2.63 µM | 9.06 µM | 2.03 µM | 5.95 µM | 4.87 µM | 2.96 µM |  | 2.93 µM | 2.56 µM | 5.88 µM |
| CCCCCCNCCCNc1c2cc(OC)ccc2nc2cccc([N+](=O)[O-])c12 | 0.213 µM | 0.393 µM and 1.08 µM | 0.0643 µM | 0.508 µM and 0.472 µM | 0.183 µM | 0.0885 µM | 0.346 µM and 0.238 µM | 0.413 µM and 1.03 µM | 0.716 µM and 1.41 µM | 0.16 µM | 0.247 µM | 0.481 µM and 1.02 µM | 0.164 µM | 0.314 µM and 0.321 µM | 0.38 µM | 0.0337 µM | 0.163 µM |  | 0.555 µM | 2.41 µM and 3.65 µM |
| CC(/C=C/C(O)=C1/C(=O)CNC1=O)=C\[C@@H](C)[C@H]1O[C@@]2(C)O[C@H](C(=O)[C@@H]3O[C@@]32C)[C@@H]1C |  |  |  | 36.4 µM |  |  |  |  | 54.4 µM |  |  | 38.1 µM |  | 83.1 µM |  |  |  |  |  | 63.7 µM |
| CCOC(=O)C1Cc2ccc3c4c(ccc(c24)C1)CC(C(=O)OCC)C3 |  | > 100 µM | > 100 µM | > 100 µM |  |  |  | > 100 µM | > 100 µM |  |  |  |  |  |  |  |  |  |  |  |
| Cn1cc(-c2cc(-c3cn(C)c4ccc(Cl)cc34)[nH]n2)c2cc(Cl)ccc21 | 3.24 µM | 14.4 µM | 3.84 µM | 22.9 µM | 5.47 µM | 5.82 µM | 28.4 µM | 8.65 µM | > 100 µM | 3.45 µM | 2.95 µM | 15.1 µM |  |  | 5.29 µM | 2.35 µM | 2.52 µM | 1.71 µM | 2.25 µM | 6.59 µM |
| COC(=O)c1cc(=O)nc2cc3cccccc3n12 |  | > 100 µM | > 100 µM | > 100 µM | > 100 µM |  |  | > 100 µM | > 100 µM |  |  |  |  |  |  |  |  |  |  |  |
| CC1=Nc2ccccc2SC(c2c(Cl)cccc2Cl)C1 (stereo not given) |  | 4.43 µM | 3.18 µM | 2.15 µM | 3.26 µM |  | 4.56 µM | 2.79 µM | 3.05 µM |  |  |  |  |  |  |  |  |  |  |  |
| CC1CC2(S(=O)(=O)c3ccccc3)ON1CC2S(=O)(=O)c1ccccc1 (stereo not given) |  | > 100 µM | > 100 µM | > 100 µM | > 100 µM |  | > 100 µM | > 100 µM | > 100 µM |  |  |  |  |  |  |  |  |  |  |  |
| COC(=O)C(=O)C(CC(=O)Nc1ccc(C)cc1)C(=O)OC (stereo not given) |  | > 100 µM | > 100 µM | > 100 µM | > 100 µM |  | > 100 µM | > 100 µM | > 100 µM |  |  |  |  |  |  |  |  |  |  |  |
| CCOC(=O)c1sc(-c2ccc(OS(=O)(=O)C[C@]34CCC(CC3=O)C4(C)C)c(C=O)c2)nc1C | 1.25 µM | > 50 µM |  | 3.54 µM | 3.24 µM | 1.49 µM | > 50 µM | 2.85 µM | 2.72 µM | 1.3 µM | 1.03 µM | 2.66 µM | 1.06 µM | 2.76 µM | 0.943 µM | 1.03 µM | 1.16 µM |  |  |  |
| CSc1ncnc2c1ncn2CC(=O)C1CCC2C3CCC4=CC(=O)CCC4(C)C3CCC12C (stereo not given) |  | > 64.7 µM |  | 9.88 µM | 18.9 µM |  | 21.3 µM | 23.7 µM | 29.8 µM |  |  | 27.7 µM |  | 10 µM |  |  |  |  |  | 7.57 µM |
| CN/N=C(/c1nc2ccc([N+](=O)[O-])cc2[nH]c1=O)C(O)c1ccc(C(O)/C(=N\NC)c2nc3ccc([N+](=O)[O-])cc3[nH]c2=O)cc1 (stereo not given) |  | > 100 µM | 95.1 µM | > 100 µM | > 100 µM |  |  | > 100 µM | > 100 µM |  |  |  |  |  |  |  |  |  |  |  |
| CCCC(=O)N[C@H]1CCc2cc(OC)c(OC)c(OC)c2-c2ccc(SC)c(=O)cc21 |  | > 100 µM | > 4.64 µM | < 0.01 µM | 0.0522 µM |  | > 100 µM | < 0.01 µM | 0.215 µM |  |  |  |  | < 0.01 µM |  |  |  |  |  |  |
| C#CCN(N=O)C(=O)ON1C(=O)CCC1=O |  | > 100 µM |  | > 100 µM | > 100 µM |  | > 100 µM | > 100 µM |  |  |  |  |  |  |  |  |  |  |  |  |
| COc1ccc(/C=C2\CCC(CCN(C)C)(C3=CCCC3)C2=O)cc1 (stereo not given) |  | 42.9 µM | 32.9 µM | 32.4 µM | 40.5 µM |  | 44.5 µM | 33.4 µM | 38.5 µM |  |  |  |  |  |  |  |  |  |  |  |
| O=C1c2ccccc2C(=O)C12CCc1ccccc12 |  | > 100 µM | > 100 µM |  | > 100 µM |  | > 100 µM | > 100 µM |  |  |  |  |  |  |  |  |  |  |  |  |
| COC(=O)C(C(=O)C(=O)Nc1ccc(C)cc1C)c1csc(-n2nc(-c3ccccc3)cc2-c2ccccc2)n1 (stereo not given) |  | > 100 µM | > 100 µM | > 100 µM | > 100 µM |  | > 100 µM |  | > 100 µM |  |  |  |  |  |  |  |  |  |  |  |
